According to patent US20240150293A1, “SPIROCYCLOHEXANE DERIVATIVES, PHARMACEUTICAL COMPOSITIONS CONTAINING THEM AND THEIR USES AS ANTI-APOPTOTIC INHIBITORS” (LES LABORATOIRES SERVIER, priority 2021, published 2024):
Like-named read-outs stand apart in the source and are kept apart here.

Key:
[1] = test system: H929 multiple myeloma tumor line; experiment: In vitro cytotoxicity, MTT assay (Example B, Method A); assay type: cell-based; details: H929 cells, 48 hours exposure, read-out: C50
Experimental: The cytotoxicity studies were carried out on the H929 multiple myeloma tumor line.
The cells are distributed onto microplates and exposed to the test compounds for 48 hours. The cell viability is then quantified by a colorimetric assay, the Microculture Tetrazolium Assay (Carmichael et al, Cancer Res. 1987, 47, 939-942).
The results are expressed in C50 which means concentration corresponding to […] of effect/inhibition.

[2] = biological target: Cy5-labelled Mcl1 (amino acids 171-321) C286S protein (UniProtKB Q07820) (Homo sapiens (Human), UniProt Q07820, C286S); experiment: Inhibition of Mcl-1 by the fluorescence quenching assay (Example A, Method B); assay type: binding
In short: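 Cy5-labelled Mcl1 171-321 C286S (1 nM) quenched by TQ5WS-labelled PUMA peptide (10, 20 or 400 nM); displacement raises fluorescence (Ex 620/Em 680 nm). Buffer 10 mM HEPES, 150 mM NaCl, 0.05% Tween 20, pH 7.4, 5% DMSO; 2 h at room temperature, 11-point curves, IC50 converted to Ki (cKi/eKi).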

Cy5-labelled Mcl1 (amino acids 171-321) C286S protein, sequence (Q07820 171-321 C286S): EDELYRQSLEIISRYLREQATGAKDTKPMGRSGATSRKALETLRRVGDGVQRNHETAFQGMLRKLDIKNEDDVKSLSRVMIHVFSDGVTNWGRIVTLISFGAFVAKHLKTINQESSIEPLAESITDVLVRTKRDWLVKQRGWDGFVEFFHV

| SMILES | Ki [2] [µM] | IC50 ([1]; Homo sapiens, NCI-H929, 48 h) [µM] | IC50 [1] [µM] |
| --- | --- | --- | --- |
| C[C@@H](COc1ccnc2c1[C@@H](C)CCC2)CC1=Cc2ccccc2[C@]12CC[C@@](Nc1cccc(Cl)c1)(C(=O)O)CC2 [Example 647, (1r,4R)-4-(3-chloroanilino)-2′-[(2R)-2-methyl-3-{[(5S)-5-methyl-5,6,7,8-tetrahydroquinolin-4-yl]oxy}propyl]spiro[cyclohexane-1,1′-indene]-4-carboxylic acid] | 0.00939 | 0.871 | – |
| C[C@@H](COc1ccnc2c1C1CCC2CC1)C[C@H]1Cc2ccccc2[C@]12CC[C@@](Nc1cccc(Cl)c1)(C(=O)O)CC2 [Example 648, (1r,2′S,4S)-4-(3-chloroanilino)-2′-{(2R)-2-methyl-3-[(5,6,7,8-tetrahydro-5,8-ethanoquinolin-4-yl)oxy]propyl}-2′,3′-dihydrospiro[cyclohexane-1,1′-indene]-4-carboxylic acid] | 0.018 | 0.79 | – |
| CC1CCCc2nccc(NC[C@H](C)C[C@H]3Cc4ccccc4[C@]34CC[C@@](Nc3cccc(Cl)c3)(C(=O)O)CC4)c21 (stereo partly drawn) [Example 655, (1r,2′S,4S)-4-(3-chloroanilino)-2′-{(2R)-2-methyl-3-[(5-methyl-5,6,7,8-tetrahydroquinolin-4-yl)amino]propyl}-2′,3′-dihydrospiro[cyclohexane-1,1′-indene]-4-carboxylic acid] | 0.0509 | 8.42 | – |
| CC[C@H]1CCCc2nccc(OC[C@H](C)C[C@H]3Cc4ccccc4[C@]34CC[C@@](Nc3cccc(Cl)c3)(C(=O)O)CC4)c21 [Example 656, (1r,2′S,4S)-4-(3-chloroanilino)-2′-[(2R)-3-{[(5S)-5-ethyl-5,6,7,8-tetrahydroquinolin-4-yl]oxy}-2-methylpropyl]-2′,3′-dihydrospiro[cyclohexane-1,1′-indene]-4-carboxylic acid] | 0.0629 | 2.91 | – |
| C[C@@H](COc1ccnc2c1[C@@H](C)CC[C@@H]2C)C[C@H]1Cc2ccccc2[C@]12CC[C@@](Nc1cccc(Cl)c1)(C(=O)O)CC2 [Example 661, (1r,2′S,4S)-4-(3-chloroanilino)-2′-[(2R)-3-{[(5S,8S)-5,8-dimethyl-5,6,7,8-tetrahydroquinolin-4-yl]oxy}-2-methylpropyl]-2′,3′-dihydrospiro[cyclohexane-1,1′-indene]-4-carboxylic acid] | 0.0807 | 4.97 | – |
| C[C@H]1Cc2nccc(OC[C@H](C)C[C@H]3Cc4ccccc4[C@]34CC[C@@](Nc3cccc(Cl)c3)(C(=O)O)CC4)c2[C@@H](C)C1 [Example 664, (1r,2′S,4S)-4-(3-chloroanilino)-2′-[(2R)-3-{[(5S,7R)-5,7-dimethyl-5,6,7,8-tetrahydroquinolin-4-yl]oxy}-2-methylpropyl]-2′,3′-dihydrospiro[cyclohexane-1,1′-indene]-4-carboxylic acid] | 0.0525 | 3.03 | – |
| C[C@@H]1Cc2nccc(OC[C@H](C)C[C@H]3Cc4ccccc4[C@]34CC[C@@](Nc3cccc(Cl)c3)(C(=O)O)CC4)c2[C@@H](C)C1 [Example 666, (1r,2′S,4S)-4-(3-chloroanilino)-2′-[(2R)-3-{[(5S,7S)-5,7-dimethyl-5,6,7,8-tetrahydroquinolin-4-yl]oxy}-2-methylpropyl]-2′,3′-dihydrospiro[cyclohexane-1,1′-indene]-4-carboxylic acid] | 0.0287 | 1.07 | – |
| CO[C@H]1CCCc2nccc(OC[C@H](C)C[C@H]3Cc4ccccc4[C@]34CC[C@@](Nc3cccc(Cl)c3)(C(=O)O)CC4)c21 [Example 671, (1r,2′S,4S)-4-(3-chloroanilino)-2′-[(2R)-3-{[(5S)-5-methoxy-5,6,7,8-tetrahydroquinolin-4-yl]oxy}-2-methylpropyl]-2′,3′-dihydrospiro[cyclohexane-1,1′-indene]-4-carboxylic acid] | 0.0393 | 2.56 | – |
| C[C@@H](COc1ccnc2c1[C@@H](C)CC[C@H]2O)C[C@H]1Cc2ccccc2[C@]12CC[C@@](Nc1cccc(Cl)c1)(C(=O)O)CC2 [Example 674, (1r,2′S,4S)-4-(3-chloroanilino)-2′-[(2R)-3-{[(5S,8R)-8-hydroxy-5-methyl-5,6,7,8-tetrahydroquinolin-4-yl]oxy}-2-methylpropyl]-2′,3′-dihydrospiro[cyclohexane-1,1′-indene]-4-carboxylic acid] | 0.00695 | 1.71 | – |

The next molecules have a lower Ki [2] than those just listed; values first:

| Ki [2] [µM] | SMILES | IC50 ([1]; Homo sapiens, NCI-H929, 48 h) [µM] | IC50 [1] [µM] |
| --- | --- | --- | --- |
| 0.00554 | CC1CCc2c(OC[C@H](C)C[C@H]3Cc4ccccc4[C@]34CC[C@@](Nc3cccc(Cl)c3)(C(=O)O)CC4)ccnc2C1 (stereo partly drawn) [Example 650, (1r,2′S,4S)-4-(3-chloroanilino)-2′-{(2R)-2-methyl-3-[(7-methyl-5,6,7,8-tetrahydroquinolin-4-yl)oxy]propyl}-2′,3′-dihydrospiro[cyclohexane-1,1′-indene]-4-carboxylic acid] | 0.912 | – |
| 0.0052 | C[C@@H](COc1ccnc2c1[C@@H](C)CCC2)C[C@H]1Cc2ccccc2[C@]12CC[C@@](Nc1cccc(Cl)c1)(C(=O)O)CC2 [Example 654, (1r,2′S,4S)-4-(3-chloroanilino)-2′-[(2R)-2-methyl-3-{[(5S)-5-methyl-5,6,7,8-tetrahydroquinolin-4-yl]oxy}propyl]-2′,3′-dihydrospiro[cyclohexane-1,1′-indene]-4-carboxylic acid] | 0.765 | – |
| 0.00405 | C[C@H]1Cc2nccc(OC[C@H](C)C[C@H]3Cc4ccccc4[C@]34CC[C@@](Nc3cccc(Cl)c3)(C(=O)O)CC4)c2[C@H](C)C1 [Example 667, (1r,2′S,4S)-4-(3-chloroanilino)-2′-[(2R)-3-{[(5R,7R)-5,7-dimethyl-5,6,7,8-tetrahydroquinolin-4-yl]oxy}-2-methylpropyl]-2′,3′-dihydrospiro[cyclohexane-1,1′-indene]-4-carboxylic acid] | 0.574 | – |
| 0.00404 | C[C@@H](COc1ccnc2c1CCCC2)C[C@H]1Cc2ccccc2[C@]12CC[C@@](Nc1cccc(Cl)c1)(C(=O)O)CC2 [Example 645, (1r,4R)-4-(3-chloroanilino)-2′-{(2R)-2-methyl-3-[(5,6,7,8-tetrahydroquinolin-4-yl)oxy]propyl}-2′,3′-dihydrospiro[cyclohexane-1,1′-indene]-4-carboxylic acid] | 0.617 | – |
| 0.00301 | C[C@@H]1Cc2nccc(OC[C@H](C)C[C@H]3Cc4ccccc4[C@]34CC[C@@](Nc3cccc(Cl)c3)(C(=O)O)CC4)c2[C@H](C)C1 [Example 665, (1r,2′S,4S)-4-(3-chloroanilino)-2′-[(2R)-3-{[(5R,7S)-5,7-dimethyl-5,6,7,8-tetrahydroquinolin-4-yl]oxy}-2-methylpropyl]-2′,3′-dihydrospiro[cyclohexane-1,1′-indene]-4-carboxylic acid] | 0.276 | – |
| 0.00294 | CC[C@@H]1CCCc2nccc(OC[C@H](C)C[C@H]3Cc4ccccc4[C@]34CC[C@@](Nc3cccc(Cl)c3)(C(=O)O)CC4)c21 [Example 657, (1r,2′S,4S)-4-(3-chloroanilino)-2′-[(2R)-3-{[(5R)-5-ethyl-5,6,7,8-tetrahydroquinolin-4-yl]oxy}-2-methylpropyl]-2′,3′-dihydrospiro[cyclohexane-1,1′-indene]-4-carboxylic acid] | 0.139 | – |
| 0.00274 | C[C@@H](COc1ccnc2c1CCC[C@H]2O)C[C@H]1Cc2ccccc2[C@]12CC[C@@](Nc1cccc(Cl)c1)(C(=O)O)CC2 [Example 668, (1r,2′S,4S)-4-(3-chloroanilino)-2′-[(2R)-3-{[(8R)-8-hydroxy-5,6,7,8-tetrahydroquinolin-4-yl]oxy}-2-methylpropyl]-2′,3′-dihydrospiro[cyclohexane-1,1′-indene]-4-carboxylic acid] | 0.355 | – |
| 0.00244 | CO[C@@H]1CCCc2nccc(OC[C@H](C)C[C@H]3Cc4ccccc4[C@]34CC[C@@](Nc3cccc(Cl)c3)(C(=O)O)CC4)c21 [Example 672, (1r,2′S,4S)-4-(3-chloroanilino)-2′-[(2R)-3-{[(5R)-5-methoxy-5,6,7,8-tetrahydroquinolin-4-yl]oxy}-2-methylpropyl]-2′,3′-dihydrospiro[cyclohexane-1,1′-indene]-4-carboxylic acid] | 0.391 | – |
| 0.00139 | C[C@@H](COc1ccnc2c1[C@H](C)CC[C@H]2C)C[C@H]1Cc2ccccc2[C@]12CC[C@@](Nc1cccc(Cl)c1)(C(=O)O)CC2 [Example 660, (1r,2′S,4S)-4-(3-chloroanilino)-2′-[(2R)-3-{[(5R,8R)-5,8-dimethyl-5,6,7,8-tetrahydroquinolin-4-yl]oxy}-2-methylpropyl]-2′,3′-dihydrospiro[cyclohexane-1,1′-indene]-4-carboxylic acid] | 0.062 | – |
| 0.000647 | C[C@@H](COc1ccnc2c1[C@H](C)CC[C@H]2O)C[C@H]1Cc2ccccc2[C@]12CC[C@@](Nc1cccc(Cl)c1)(C(=O)O)CC2 [Example 673, (1r,2′S,4S)-4-(3-chloroanilino)-2′-[(2R)-3-{[(5R,8S)-8-hydroxy-5-methyl-5,6,7,8-tetrahydroquinolin-4-yl]oxy}-2-methylpropyl]-2′,3′-dihydrospiro[cyclohexane-1,1′-indene]-4-carboxylic acid] | – | 0.208 |
| 0.000593 | C[C@@H](COc1ccnc2c1[C@H](C)CCC2)CC1=Cc2ccccc2[C@]12CC[C@@](Nc1cccc(Cl)c1)(C(=O)O)CC2 [Example 646, (1r,4R)-4-(3-chloroanilino)-2′-[(2R)-2-methyl-3-{[(5R)-5-methyl-5,6,7,8-tetrahydroquinolin-4-yl]oxy}propyl]spiro[cyclohexane-1,1′-indene]-4-carboxylic acid] | 0.148 | – |
